# Assays:
# J774.1 macrophages = assay: Lipid-loading assay (foam cell formation); type: cell-based, murine; details: LDL 100 μg/mL with 4a or 5a (20 μM), 72 h, unactivated J774.1 macrophages
# Method: Lipid-loading assay (foam cell formation). J774.1 macrophages were incubated in ATCC-recommended media containing 10% fetal bovine serum under a controlled atmosphere of 5 or 7% CO2 at 37° C., in 8-well chamber slides. […] At termination, cells were washed twice with PBS (pH 7.4). The cells were then fixed with 6% (v/v) paraformaldehyde in PBS for 30 minutes, rinsed with propylene glycol for 2 minutes and lipids were stained with 5 mg/ml Oil Red 0 for 8 minutes. The cells were counterstained with Harris' hematoxylin for 45 seconds, and background staining was removed with 6% paraformaldehyde followed by washing once in PBS and once in tap water. Cover slips were mounted onto the glass slides using glycerol and the slide preparations were examined by light microscopy. The number of lipid-laden cells was scored out of a total of at least 100 cells counted in a single field in each slide, and expressed as a percentage of total cells. Photographs were taken at 100× magnification.
# [1] = Aldolization of ketoaldehyde 4a with amino acids (1H NMR); type: physicochemical; details: DMSO-d6 (800 μl) and D2O (80 μl) without amino acid
# Method: Aldolization of ketoaldehyde 4a with amino acids. […] To this solution was added 1 equivalent of either: a) L-proline, b) glycine, c) L-lysine hydrochloride or d) L-lysine ethyl ester dihydrochloride. At time points the samples were analyzed by ^1H NMR.
# [2] = system: Class A scavenger receptor (SR-A); assay: Scavenger receptor expression by flow cytometry, SR-A; type: cell-based, murine; details: cultured macrophages, compound in the absence of LDL
# Method: Cell surface CD36 and SR-A were measured by flow cytometry using CD36 (BD Biosciences Pharmingen, San Diego, Calif.) and CD204 (Serotec, Oxford, UK) specific monoclonal antibodies. See Liao et al. (2000) Arterioscler. Thromb. Vasc. Biol. 20: 1968-75; Hu et al. (1996) Blood 87: 2020-28. Murine macrophage J774A.1 cells were serum-starved overnight in media with 0.5% BSA. Cells (1×10^6) treated with cholesterol ozonation products or cholesterol ozonation product complexed with LDL for specified times were then washed twice with PBS. […] Expression of either CD36 or SR-A was determined with CD36 (BD Biosciences Pharmingen, San Diego, Calif.) and CD204 (Serotec, Oxford, U.K.) specific monoclonal antibodies, respectively. After washing off the primary antibody, secondary antibodies were added, cells were washed again, then analyzed on a FACS calibur 2 (Becton Dickinson, Sparks, Md.) flow cytometer and analyzed by CellQuant software. Results were expressed as mean fluorescence intensity±standard error of the mean (SEM) of at least duplicate determinations. Significance was determined using a student two-tail t test, with (*) indicating p<0.05, and (**) indicating p<0.01 versus the control.
# [3] = Aldolization of secoketoaldehyde 4a with atherosclerotic artery and blood fractions (1H NMR); type: in vitro ADME, human; details: in the presence of lyophilized PBS
# Method: Aldolization of secoketoaldehyde 4a with atherosclerotic artery and bloodfractions. […] To this solution was added either a) atherosclerotic artery (2.1 mg) that had been homogenized in PBS (1 ml) in a tissue homogenizer and then lyophilized to dryness, b) lyophilized human blood (1 ml), c) lyophilized human plasma (1 ml) or d) PBS lyophilized (1 ml). At time points samples were removed and analyzed by ^1H NMR vide supra.
# VCAM-1 (CD106) = assay: Endothelial adhesion molecule expression by ELISA, VCAM-1; type: cell-based, human
# Method: (§1) Endothelial cell surface adhesion molecule expression was measured by ELISA, using anti-human CD54 (ICAM-1), CD106 (VCAM-1) and CD62E (E-Selectin) antibodies (Leinco Technologies, Inc., St. Louis, Mo.). The ELISA method was modified from previously described procedures.
# (§2) Cells were then incubated with antibodies to VCAM-1, E-selectin, or ICAM-1 diluted 1:400 in PBS containing 5% FCS at 37° C. for 30 min. Wells were washed two times with PBS, then incubated with horseradish peroxidase (HRP)-conjugated goat anti-mouse IgG (Southern Biotechnology Associates, Birmingham, Ala., USA) in PBS/5% FCS at 37° C. for 30 min. The wells were washed four times with PBS, then incubated with H2O2/3,3′,5,5′-tetramethyl-benzidine peroxidase substrate (Pierce Chemical, Rockford, Ill., USA) for 30 min in the dark. The reaction was stopped by adding 25 μl of 8 N H2SO4, and the plates read on a microplate reader, blanking on wells stained with only secondary antibody. Each assay was performed in triplicate and the data are reported as the mean±SEM as a percentage of the expression level of the vehicle. To study the effect of cholesterol ozonation product 5a concentration (5-50 μM) on E-selectin expression, the assay was performed in an identical fashion as described above, with each point being the mean±SEM of at least duplicate measurements.
# E-selectin (CD62E) = assay: Endothelial adhesion molecule expression by ELISA, E-selectin; type: cell-based, human
# Method: as §1, §2
# THP-1 monocytes = assay: Monocyte morphology changes (differentiation into macrophages); type: cell-based, human; details: 12.5 or 25 μM, up to 7 days
# Method: THP-1 monocytes in suspension were plated in 8-well chambered slides. […] Media containing appropriate treatment compounds was replaced after 4 days. After 4 days treatment, morphologic changes of the adherent cells were assessed by phase-contrast microscopy and photographed using an Olympus Microfire digital camera.
# neuronal cell lines = assay: Cytotoxicity towards neuronal cell lines (similar procedures); type: cell-based
compound,measurement,setting,value
"CC(C)CCC[C@@H](C)[C@H]1CCC2C(CC=O)C([C@@]3(C)CC[C@H](O)CC3=O)CC[C@@]21C (some centres unmarked) [4a, 3βHydroxy-5-oxo-5,6-secocholestan-6-al]",lipid-loading of macrophages / foam cell formation,J774.1 macrophages,began lipid-loading and foam cells began to appear
same,aldolization of 4a,[1],no aldolization
same,SR-A expression,[2],did not increase expression of either receptor
same,aldolization of 4a,[3],no aldolization
same,VCAM-1 levels,"VCAM-1 (CD106); HAAE-1, 25 μM compound in the presence of LDL, 4 h",remain unchanged
same,integrin expression (VCAM-1),"VCAM-1 (CD106); HAAE-1, not complexed with LDL",no effects
same,induction of E-selectin levels,"E-selectin (CD62E); HAAE-1, 1.25 μM complexed with LDL (100 μg/mL protein)",2 fold
same,induction of E-selectin levels,"E-selectin (CD62E); HAAE-1, 50 μM complexed with LDL (100 μg/mL protein)",about 8 fold
same,selectin (E-selectin) expression,"E-selectin (CD62E); HAAE-1, not complexed with LDL",no effects
same,"THP-1 monocyte differentiation into macrophages (adherence, morphology)",THP-1 monocytes,neither became adherent nor developed the aforementioned morphological changes
same,cytotoxicity towards neuronal cell lines,neuronal cell lines,cytotoxic
